Source: publication PMC8747035, “Design, Synthesis, and Biological Evaluation of 5,6,7,8-Tetrahydrobenzo[4,5]thieno[2,3-d]pyrimidines as Microtubule Targeting Agents” (Molecules, 2022)

Key:
Format in all cases: cell-based
MCF7 = experiment: NCI-60 growth inhibition, MCF7; details: Homo sapiens, Breast Cancer
From the text: (§1) Compound 4 had better potency than the lead compound 1 in 50 cancer cell lines. (better by 5 to 6-fold in leukemia, 2 to 17-fold in NSCLC, 2 to 6-fold in colon cancer, 2 to 5-fold in CNS cancer, 2 to 25-fold in melanoma, 2 to 5-fold in ovarian cancer, 2 to 9-fold in renal cancer, 2 to 5-fold in prostate cancer, and 2 to 6-fold in breast cancer compared to lead compound 1).

SNB-75 = experiment: NCI-60 growth inhibition, SNB-75; details: Homo sapiens, CNS Cancer
From the text: as §1

LOX IMVI = experiment: NCI-60 growth inhibition, LOX IMVI; details: Homo sapiens, Melanoma
From the text: as §1

A-10 cells = experiment: Cellular microtubule depolymerization in A-10 cells (immunofluorescence); details: Rattus norvegicus, A10; 18 h, loss of 50% of interphase microtubules
Protocol: We investigated the microtubule depolymerization and the antiproliferative activities of compounds 4–14 (Table 2). […] We next evaluated the importance of the 4′-OMe group of compound 4 by replacing it with an isosteric 4′-SMe (5). […] Clearly, this further substantiated the importance of an S in the scaffold over an NH.
The effects of the compounds on cellular microtubules were evaluated in A-10 cells using indirect immunofluorescence microscopy. These cells were obtained from the American Type Culture Collection (ATCC) (Manassas, VA, USA). Cells were treated with the compounds of interest for 18 h, and the cells fixed with cold MeOH and microtubule structures were visualized using a β-tubulin antibody (Sigma-Aldrich, St. Louis, MO, USA). The concentration that caused loss of 50% of the interphase microtubules was defined as the EC50 and calculated as previously described. These values represent an average of at least three independent experiments.

UACC-257 = experiment: NCI-60 growth inhibition, UACC-257; details: Homo sapiens, Melanoma
From the text: as §1

EKVX = experiment: NCI-60 growth inhibition, EKVX; details: Homo sapiens, NSCLC
From the text: as §1

NCI-H23 = experiment: NCI-60 growth inhibition, NCI-H23; details: Homo sapiens, NSCLC
From the text: as §1

MDA-MB-468 = experiment: NCI-60 growth inhibition, MDA-MB-468; details: Homo sapiens, Breast Cancer
From the text: as §1

TK-10 = experiment: NCI-60 growth inhibition, TK-10; details: Homo sapiens, Renal Cancer
From the text: as §1

HCC-2998 = experiment: NCI-60 growth inhibition, HCC-2998; details: Homo sapiens, Colon Cancer
From the text: as §1

SK-MEL-2 = experiment: NCI-60 growth inhibition, SK-MEL-2; details: Homo sapiens, Melanoma
From the text: as §1

NCI-H226 = experiment: NCI-60 growth inhibition, NCI-H226; details: Homo sapiens, NSCLC
From the text: as §1

SK-OV-3 MDR1-M6/6 cells = experiment: SRB assay in Pgp-expressing SK-OV-3 MDR1-M6/6 cells; details: Homo sapiens, SKOV3-MDR1-M6/6, read-out: IC50 ± SD in SK-OV-3 MDR1-M6/6 Cells
Protocol: Comparison of the IC50 values in the parental SK-OV-3 and genetically manipulated SK-OV-3 MDR1-M6/6 cell line allows for the calculation of a relative resistance value, designated Rr. This value is calculated by dividing the IC50 value obtained in the Pgp-expressing SK-OV-3 MDR1-M6/6 cells by the IC50 obtained in the parental SK-OV-3 cells.
(§2) The antiproliferative and cytotoxic effects of the compounds in cancer cells were evaluated using the SRB assay as previously described. MDA-MB-435 cells were obtained from the Lombardi Cancer Center of Georgetown University (Washington, DC, USA). SK-OV-3 and HeLa cells were purchased from ATCC. Details about the generation of the SK-OV-3 MDR1-M6/6 and HeLa WTβIII cells were described previously. The IC50 values represent an average of three independent experiments, each conducted using triplicate points.
(§3) HeLa, A-10, SK-OV-3, and SK-OV-3 MDR1-M6/6 cells were grown in Basal Medium Eagle (Sigma-Aldrich, St. Louis, MO, USA) supplemented with 10% FBS (Hyclone, GE Life Sciences, Logan, UT, USA) 1% GlutaMAX (Gibco, Life Technologies, Waltham, MA, USA) and 50 µg/mL gentamycin (Life Technologies, USA). HeLa WTβIII cells were grown in Dulbecco’s Modified Eagle Medium (Life Technologies) supplemented with 10% FBS and 50 µg/mL gentamycin. MDA-MB-435 cells were maintained in Improved Minimum Essential Medium (Life Technologies) supplemented with 10% FBS and 25 µg/mL gentamycin. All cells were grown at 37 °C in a humidified environment with 5% CO2.

HeLa cells = experiment: SRB assay in HeLa cells; details: Homo sapiens, read-out: IC50 ± SD in HeLa
Protocol: Compounds 4–8, 10, 12, and 13 were evaluated for their abilities to overcome βIII-tubulin mediated drug resistance using an isogenic HeLa cell line pair (Table 4). […] The Rr values (Table 4) were calculated by dividing the IC50 of the βIII-tubulin expressing line by the IC50 obtained in the parental HeLa cells.
as §2, §3

SNB-19 = experiment: NCI-60 growth inhibition, SNB-19; details: Homo sapiens, CNS Cancer
From the text: as §1

MOLT-4 = experiment: NCI-60 growth inhibition, MOLT-4; details: Homo sapiens, Leukemia
From the text: as §1

OVCAR-4 = experiment: NCI-60 growth inhibition, OVCAR-4; details: Homo sapiens, Ovarian Cancer
From the text: as §1

IGROVI = experiment: NCI-60 growth inhibition, IGROVI; details: Homo sapiens, Ovarian Cancer
From the text: as §1

NCI-H322M = experiment: NCI-60 growth inhibition, NCI-H322M; details: Homo sapiens, NSCLC
From the text: as §1

OVCAR-5 = experiment: NCI-60 growth inhibition, OVCAR-5; details: Homo sapiens, Ovarian Cancer
From the text: as §1

UACC-62 = experiment: NCI-60 growth inhibition, UACC-62; details: Homo sapiens, Melanoma
From the text: as §1

K-562 = experiment: NCI-60 growth inhibition, K-562; details: Homo sapiens, K562, Leukemia
From the text: as §1

[1] = system: NCI-60 cancer cell line panel; experiment: NCI-60 cancer cell line panel (overall); details: Homo sapiens; 40 most sensitive of the 60 cancer cell lines
From the text: as §1

A498 = experiment: NCI-60 growth inhibition, A498; details: Homo sapiens, Renal Cancer
From the text: as §1

NCI/ADR-RES = experiment: NCI-60 growth inhibition, NCI/ADR-RES; details: Homo sapiens, Ovarian Cancer
From the text: as §1

ACHN = experiment: NCI-60 growth inhibition, ACHN; details: Homo sapiens, Renal Cancer
From the text: as §1

NCI-H460 = experiment: NCI-60 growth inhibition, NCI-H460; details: Homo sapiens, NSCLC
From the text: as §1

SN12C = experiment: NCI-60 growth inhibition, SN12C; details: Homo sapiens, Renal Cancer
From the text: as §1

RPMI-8226 = experiment: NCI-60 growth inhibition, RPMI-8226; details: Homo sapiens, Leukemia
From the text: as §1

COc1ccc(N(C)c2nc(N)nc3sc4c(c23)CCCC4)cc1 [Compound 4, N4-(4-methoxyphenyl)-N4-methyl-5,6,7,8-tetrahydrobenzo[4,5]thieno[2,3-d]pyrimidine-2,4-diamine]
GI50 (MCF7): 8.01 nM
GI50 (SNB-75): 8.42 nM
GI50 (LOX IMVI): 10.1 nM
EC50 (A-10 cells): 19 nM
GI50 (UACC-257): 18.4 nM
GI50 (EKVX): 11.2 nM
GI50 (NCI-H23): 11.3 nM
GI50 (MDA-MB-468): 6.05 nM
GI50 (TK-10): 14.2 nM
GI50 (HCC-2998): 11.8 nM
GI50 (SK-MEL-2): 11.8 nM
GI50 (NCI-H226): 17.5 nM
IC50 (SK-OV-3 MDR1-M6/6 cells): 17.5 ± 0.8 nM
IC50 (HeLa cells): 13.5 ± 1.5 nM
GI50 (SNB-19): 9.04 nM
GI50 (MOLT-4): 8.8 nM
GI50 (OVCAR-4): 9.98 nM
GI50 (IGROVI): 12.8 nM
GI50 (NCI-H322M): 11.6 nM
GI50 (OVCAR-5): 10.8 nM
GI50 (UACC-62): 14.9 nM
GI50 (K-562): 2.72 nM
GI50 [1]: ~10 nM
GI50 (A498): 12 nM
GI50 (NCI/ADR-RES): 6.19 nM
GI50 (ACHN): 10.2 nM
GI50 (NCI-H460): 10.4 nM
GI50 (SN12C): 14.4 nM
GI50 (RPMI-8226): 12.7 nM
